How the values were obtained:
Format in all cases: in vivo, human
[1] = Plasma levels of CBD and THC after acute dose (Example 1 cross-over study); conditions: over the course of 4.45 hours (285 minutes), recreational marijuana users
Protocol: FIGS. 1A-1B: Plasma levels of CBD and THC—adjusted for baseline, for each of the dose conditions over the course of […] (285 minutes).
(§1) Sessions were completed one-week apart to allow for an adequate washout period between sessions.

[2] = Blood pressure and pulse after acute dose (Example 1 safety study); conditions: recreational marijuana users
Description: (§2) FIGS. 2A-2D: Blood Pressure, Pulse and Wanting More Drug Rating, adjusted for Baseline.
as §1
(§3) The first study was directed towards assessing safety of the THC and CBD doses in healthy, recreational cannabis users. […] The novel pain provocation experimental method allowed for detection of this effect within this first safety protocol assessment.

[3] = system: recreational marijuana users; assay: Wanting More Drug rating (drug craving) after acute dose; conditions: adjusted for baseline
Description: as §2, §1

[4] = system: recreational marijuana users; assay: Provoked pain and anxiety ratings during adapted CPT protocol; conditions: versus 40 CBD+20 THC, 100 CBD alone and 40 CBD alone; CBD alone versus CBD with low doses of THC (4:1 and 3:1)
Description: FIGS. 3A-3B: Provoked average pain and anxiety (adjusted for baseline) ratings during adapted CPT protocol.
as §1, §3

Compound | plasma CBD levels adjusted for baseline, relative to placebo [1] | plasma THC levels adjusted for baseline, relative to placebo [1] | diastolic BP adjusted for baseline, relative to placebo [2] | average drug craving (want more drug), relative to placebo [3] | reducing pain and stress responses, comparison between dose conditions [4]
C=C(C)[C@@H]1CCC(C)=C[C@H]1c1c(O)cc(CCCCC)cc1O [CBD100, cannabidiol] | significantly increased | not | significantly increased | significantly reduced | 
C=C(C)[C@@H]1CCC(C)=C[C@H]1c1c(O)cc(CCCCC)cc1O [CBD40, cannabidiol] |  | not |  | significantly reduced | 
C=C(C)[C@@H]1CCC(C)=C[C@H]1c1c(O)cc(CCCCC)cc1O [CBD, cannabidiol] |  |  |  |  | not as effective

From patent publication US20240358726A1, “SPECIFIC T[…] MARIJUANA DOSES FOR STRESS AND PAIN” (Yale University, priority 2021, published 2024)
